According to paper PMC10508264, “Exploring the antioxidant, antimicrobial, cytotoxic and biothermodynamic properties of novel morpholine derivative bioactive Mn(II), Co(II) and Ni(II) complexes – combined experimental and theoretical measurements towards DNA/BSA/SARS-CoV-2 3CL^Pro” (RSC Medicinal Chemistry, 2023):

What was measured:
Pseudomonas aeruginosa = assay: Agar disc diffusion, strain D; format: cell-based; set-up: Inhibition%: concentration or dose not given beside the values; settings: for Diameter of clear zone inhibition: control 6 mm
Bacillus cereu = assay: Agar disc diffusion, strain G; format: cell-based; set-up: Inhibition%: concentration or dose not given beside the values; settings: for Diameter of clear zone inhibition: control 6 mm

SMILES	Inhibition% (Pseudomonas aeruginosa)	Diameter of clear zone inhibition (Pseudomonas aeruginosa)	Inhibition% (Bacillus cereu)	Diameter of clear zone inhibition (Bacillus cereu)
[Mn+2].[O-]c1ccccc1N=Cc1ccc(N2CCOCC2)cc1.[O-]c1ccccc1N=Cc1ccc(N2CCOCC2)cc1.c1ccc(-c2ccccn2)nc1 [(1)]	63%	16 mm	57%	14 mm
[Co+2].[O-]c1ccccc1N=Cc1ccc(N2CCOCC2)cc1.[O-]c1ccccc1N=Cc1ccc(N2CCOCC2)cc1.c1ccc(-c2ccccn2)nc1 [(2)]	54%	13 mm	54%	13 mm
[Ni+2].[O-]c1ccccc1N=Cc1ccc(N2CCOCC2)cc1.[O-]c1ccccc1N=Cc1ccc(N2CCOCC2)cc1.c1ccc(-c2ccccn2)nc1 [(3)]	57%	14 mm	54%	13 mm
Oc1ccccc1N=Cc1ccc(N2CCOCC2)cc1 [(HL), 2-(4-morpholinobenzylideneamino)phenol]	25%	08 mm	33%	09 mm
